Experimental data reported in patent US6867320B2, “Substituted phenylalkanoic acid derivatives and use thereof” (Asahi Kasei Pharma Corporation, priority 2002, dated 2005).

Legend:
[1] = tested on: IgE-stimulated footpad edema; assay: Mouse IgE-stimulated footpad edema reaction; assay type: in vivo; details: C57BL/6 male mice, oral 0.1 to 500 mg/kg, compared with positive control group
Method in brief: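 Male C57BL/6 mice (9–11 weeks, n=5) sensitised one day earlier by footpad injection of anti-DNP-BSA IgE serum; compound given orally in 0.5% methylcellulose at 0.1 to 500 mg/kg, then DNP-BSA i.v. 2 h later. Footpad swelling measured at 10–30 min, expressed as AUC and % suppression versus vehicle control.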

[2] = tested on: zymosan-stimulated footpad edema; assay: Mouse zymosan-stimulated footpad edema reaction; assay type: in vivo; details: ICR female mice, oral 0.1 to 500 mg/kg, compared with positive control group
Method in brief: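 Female ICR mice (6–7 weeks, n=8) dosed orally at 0.1 to 500 mg/kg in 0.5% methylcellulose; 1 h later zymosan (1 mg/ml, 0.02 ml) injected s.c. into right hind footpad. Edema volume at 1 and 2 h gave AUC to 2 h; suppression (%) calculated against positive control AUC.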

[3] = tested on: LTB4 production from IgE-stimulated RBL-2H3 cells; assay: Suppressing action on LTB4 production from IgE-stimulated RBL-2H3 cells; assay type: cell-based; details: Rattus norvegicus, 10 min, IgE/DNP-BSA stimulated RBL-2H3 cells, read-out: LTB4 production suppression ratio
Method in brief: (§1)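 Rat RBL-2H3 mastocytoma cells, sensitized 30 min with anti-DNP-BSA IgE, then given test compound in 0.5% FBS medium and stimulated with DNP-BSA (100 ng/ml final). Supernatant PGD2 and LTB4 were measured by EIA after 10 min. Suppression ratio is calculated against unstimulated and stimulant-only controls.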

[4] = tested on: PGD2 production from IgE-stimulated RBL-2H3 cells; assay: Suppressing action on PGD2 production from IgE-stimulated RBL-2H3 cells; assay type: cell-based; details: Rattus norvegicus, 10 min, IgE/DNP-BSA stimulated RBL-2H3 cells, read-out: PGD2 production suppression ratio
Method in brief: as §1

[5] = tested on: PGE2 production from IL-1β-stimulated MG-63 cells; assay: Suppressing action on PGE2 production from IL-1β-stimulated MG-63 cells; assay type: cell-based; details: Homo sapiens, IL-1β 1 ng/ml, 18 hours, read-out: PGE2 production suppression ratio
Method in brief: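 Human osteosarcoma MG-63 cells (2×10^4/well) switched to 0.5% FBS medium, treated with compound, then stimulated with IL-1β at 1 ng/ml final for 18 h. Supernatant PGE2 measured by EIA; suppression ratio calculated against stimulated and unstimulated wells.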

O=C(O)CCc1ccc(OCC2CCCCC2)c(-c2cnc3ccccc3c2)c1 [Compound 317, 3-[4-cyclohexylmethyloxy-3-(quinolin-3-yl)phenyl]propionic acid]
suppression of footpad edema caused by IgE stimulation [1]: suppressed the footpad edema | suppression of footpad edema caused by zymosan [2]: suppressed footpad edema | inhibition at 0.4 µM [3]: ≥ 50% | inhibition at 0.4 µM [4]: ≥ 50% | inhibition at 0.4 µM [5]: ≥ 50%
